# Source: ChEMBL document CHEMBL1129818, “Discovery of anti-influenza A virus activity of a corynanthe-type indole alkaloid, hirsutine, in vitro and the structure-activity relationship of natural and synthetic analogs” (Bioorg Med Chem Lett, 1997)
# Several values for one entry are separate records, joined by “and”; a condition that tells them apart may be missing. Identical values can stand only once.
# Tests used:
# [1] = system: MDCK; test: Cytotoxicity was measured by Anti-influenza A virus Ishikawa/7/82 in MDCK cells by MTT assay; type: functional; settings: Canis lupus familiaris
# [2] = system: MDCK; test: Effective concentration required to determine Anti-influenza A virus Ishikawa/7/82 in MDCK cells by MTT assay; type: functional, cell-based; settings: Canis lupus familiaris
# [3] = Selectivity index for effective concentration to that of Cytotoxicity in MDCK cells by MTT assay; type: functional
# [4] = system: MDCK; test: The compound was evaluated for inhibitory effect on the replication of influenza A subtype H3N2 Philippine/2/82 in MDCK cells; type: functional, cell-based; settings: Canis lupus familiaris
# [5] = system: MDCK; test: The compound was evaluated for inhibitory effect on the replication of influenza A subtype H1N1 Bangkok/10/83 strain in MDCK cells; type: functional, cell-based; settings: Canis lupus familiaris
# [6] = system: MDCK; test: The compound was evaluated for inhibitory effect on the replication of influenza A subtype H1N1 PR8/34 strain in MDCK cells; type: functional, cell-based; settings: Canis lupus familiaris
# [7] = system: MDCK; test: The compound was evaluated for inhibitory effect on the replication of influenza B norway/1/80 strain in MDCK cells; type: functional, cell-based; settings: Canis lupus familiaris
# [8] = system: MDCK; test: The compound was evaluated for inhibitory effect on the replication of influenza A subtype H2N2 Adachi/2/57 in MDCK cells; type: functional, cell-based; settings: Canis lupus familiaris
# [9] = system: MDCK; test: The compound was evaluated for inhibitory effect on the replication of influenza A subtype H1N1 yamagata/120/86 strain in MDCK cells; type: functional, cell-based; settings: Canis lupus familiaris
# [10] = system: MDCK; test: The compound was evaluated for cytotoxicity by MTT assay in MDCK cells; type: functional; settings: Canis lupus familiaris
# [11] = system: MDCK; test: The compound was evaluated for inhibitory effect on the replication of influenza A subtype H3N2 ishikawa/7/82 in MDCK cells; type: functional, cell-based; settings: Canis lupus familiaris
# [12] = system: MDCK; test: The compound was evaluated for inhibitory effect on the replication of influenza A subtype H2N2 murakami/4/64 strain in MDCK cells; type: functional, cell-based; settings: Canis lupus familiaris
# [13] = system: MDCK; test: The compound was evaluated for inhibitory effect on the replication of influenza B Singapore/222/79 strain in MDCK cells; type: functional, cell-based; settings: Canis lupus familiaris
# [14] = Selectivity index ratio of CC50 / EC50 was determined; type: functional
Structure (SMILES),CC50 [1] [µg/mL],EC50 [2] [µg/mL],Selectivity index [3],further results
CC[C@@H]1CN2CCc3c([nH]c4ccccc34)[C@@H]2C[C@@H]1/C(=C\OC)C(=O)OC [CORYNANRHEIDINE],45.1,> 45.1,,
CC[C@H]1CN2CCc3c([nH]c4ccccc34)[C@H]2C[C@@H]1/C(C=O)=C(/O)OC,8.4,> 8.4,,
CC[C@H]1CN2CCc3c(n(C)c4ccccc34)[C@H]2C[C@@H]1/C(=C\OC)C(=O)OC,25.3,1.7,15.8,
CC[C@H]1CN2CC[C@]3(O)C(=Nc4ccccc43)[C@H]2C[C@@H]1/C(=C\OC)C(=O)OC,> 100,> 100,,
C=CC1CN2CCc3c([nH]c4ccccc34)C2C[C@@H]1/C(=C\OC)C(=O)OC (some centres undefined),25.2,1.8,14,
CC[C@H]1C[N+]2(C)CCc3c([nH]c4ccccc34)[C@H]2C[C@@H]1/C(=C\OC)C(=O)OC (some centres undefined),> 100,> 100,,
NC(=O)c1ncn([C@@H]2O[C@H](CO)[C@@H](O)[C@H]2O)n1 [RIBAVIRIN],,,,EC50 [4]: 6.1 µg/mL; EC50 [5]: 34.2 µg/mL; EC50 [6]: 8.3 µg/mL; EC50 [7]: 5.5 µg/mL; EC50 [8]: 2.2 µg/mL; EC50 [9]: 11.7 µg/mL; CC50 [10]: > 100 µg/mL; EC50 [11]: 7.9 µg/mL; EC50 [12]: 2.1 µg/mL; EC50 [13]: 8.5 µg/mL
CC[C@H]1CN2CCc3c([nH]c4ccccc34)[C@H]2C[C@@H]1C(/C=N\C)=C(/O)OC,3.9,> 3.9,,
CC[C@H]1CN2CCc3c([nH]c4ccccc34)[C@@H]2C[C@@H]1/C(=C/OC)C(=O)OC [DIHYDROCORYNANTHEINE],86.3,> 86.3,,
CC[C@H]1CN2CCc3c([nH]c4cccc(OC)c34)[C@H]2C[C@@H]1/C(=C\OC)C(=O)OC,40.7,0.5,76.8,
CCO/C=C(\C(=O)OC)[C@H]1C[C@@H]2c3[nH]c4ccccc4c3CCN2C[C@@H]1CC,32.4,0.9,36.4,
CC[C@H]1CN2CCc3c([nH]c4ccccc34)[C@H]2C[C@@H]1/C(=C\OC)C(=O)OC [HIRSUTINE],,,,EC50 [4]: 0.57 µg/mL; EC50 [5]: > 23.5 µg/mL; EC50 [6]: > 23.5 µg/mL; EC50 [7]: > 23.5 µg/mL; EC50 [8]: > 23.5 µg/mL; EC50 [9]: > 23.5 µg/mL; Ratio [14]: 58.8 and 41.2; CC50 [10]: 23.5 µg/mL; EC50 [11]: 0.4 µg/mL; EC50 [12]: > 23.5 µg/mL; EC50 [13]: > 23.5 µg/mL
CC[C@H]1CN2Cc3c(nc4ccccc4c3O)[C@H]2C[C@@H]1/C(=C\OC)C(=O)OC,38.1,> 38.1,,
CC[C@H]1CN2CCc3c([nH]c4ccccc34)[C@H]2C[C@@H]1/C(=C/OC)C(=O)O,39.2,> 39.2,,
C=C(C(=O)OC)[C@H]1C[C@@H]2c3[nH]c4ccccc4c3CCN2C[C@@H]1CC,62.1,> 62.1,,
CC[C@H]1C[N+]2([O-])CCc3c([nH]c4ccccc34)[C@H]2C[C@@H]1/C(=C\OC)C(=O)OC (some centres undefined),> 100,86.4,>1.2,
